A melting point compilation (Tetko et al.; mined from patent text by program, amines drawn as free bases though some values may be those of a salt)

melting point [°C]	Structure (SMILES)
211 to 217	O=C(O)CCCc1cc2nc(Cl)ccc2n1S(=O)(=O)c1ccc(-c2cscn2)cc1
94 to 96	COc1ccc(Nc2ccccc2C(C)=C(Cl)Cl)cc1OC
193 to 196	Cc1cc(SCc2cccc3nc(-c4ccc(C(F)(F)F)cc4)sc23)ccc1OCC(=O)O
153 to 154	COC(CC(=O)c1ccc(Br)cc1)C(=O)c1ccc(Br)cc1 (configuration not stated)
152 to 154	CS(=O)(=O)Nc1ccc(Cn2ncc(Cl)c(Cl)c2=O)cc1
164 to 166	CCC1c2cccn2-c2ccc(F)cc2N1S(=O)(=O)c1ccc(OC)c(C)c1 (configuration not stated)
170 to 172	CC(Oc1ccnc2ccccc12)C(=O)Nc1ccc(Cl)cc1 (configuration not stated)
121 to 126	CN(C(=O)OC(C)(C)C)[C@H](Cc1ccc2ccccc2c1)C(=O)N1CCc2ccccc2C1
175 to 176	CN(C)CCNC(=O)c1c2ccccc2nc2c1[nH]c1ccccc12
129 to 132	O=c1c2c(Cc3ccc(OC(F)(F)F)cc3)n[nH]c2c2cccnc2n1-c1cccc(OC(F)(F)F)c1
218 to 228	CC(=O)Nc1cc(Oc2ccc3c(C(=O)Nc4ccc(N5CCC[C@H](N)C5)c(C(F)(F)F)c4)cccc3c2)ncn1
136	CCCCOC(=O)n1ccc(NC(=O)Nc2cccc3c2C2CCCCN2C3=O)n1 (configuration not stated)
60 to 62	CCOC(=O)CCCNc1ccccc1-c1ccccc1
157 to 159	Nc1cccc2c(-c3ccc(=O)[nH]n3)c(-c3ccccc3)nn12
129 to 130	C=C1CC(COc2cccc3ccc(C)nc23)(c2ccc(Cl)cc2)OC1=O (configuration not stated)
140 to 141	CCOC(=O)CC(=O)c1cc(F)c(S(=O)(=O)c2ccccc2)nc1Nc1ccc(F)cc1F
183 to 185	CC1(C)CCC(C)(C)c2cc(-c3cc(-c4ccc(C(=O)O)cc4O)ccc3-c3ccccc3)ccc21
158	O=S(=O)(Nc1ccccc1NCCOc1ccc(Cl)cc1)c1ccc(Cl)cc1
213 to 215	CC(Cl)(Cl)C(NC(=O)c1cc(Cl)cc(Cl)c1)NC(=NS(=O)(=O)C(F)(F)F)Nc1cccnc1 (configuration not stated)
168	Fc1ccc(Cn2c(NC3CCN(CCNc4ncccn4)CC3)nc3ccccc32)cc1
128 to 130	CCOC(=O)C1Cc2c([nH]c3ccc(C)cc23)C(c2ccccc2)N1 (configuration not stated)
143 to 145	COc1ccc(S(=O)(=O)n2ccc3ccnc(-c4ccc(C(F)(F)F)cc4)c32)cc1
125 to 126	CCOC(=O)c1c(C)nc(-c2ccccc2)nc1-c1cc([N+](=O)[O-])ccc1SC
100 to 102	COC(=O)C(c1ccccc1Cl)C1CNc2sc(OC(=O)c3ccc([N+](=O)[O-])cc3)cc2C1 (configuration not stated)

melting point [°C]	Structure (SMILES)
220	O=C(NC(=O)c1c(F)cccc1F)Nc1ccc(Cl)c(C(F)(F)F)c1
57 to 59	CN(C)Cc1ccccc1Sc1ccc(F)cc1[N+](=O)[O-]
225 to 226	N#Cc1ccc(OCc2ccncc2)cc1OC(C(=O)O)c1ccccc1Cl (racemic)
122 to 125	NCc1ccc(-c2ccc(N(Cc3ccccc3)Cc3ccccc3)cc2)cc1
95.8 to 97.5	COc1ccc(-c2nnn(-c3ccc(C(F)(F)F)cc3F)c2Cl)c(Cl)c1
194 to 196	Cc1nc(Nc2ccccc2)sc1C(=O)c1sc(Nc2ccccc2)nc1C
118 to 119	Cc1ccc(S(=O)(=O)N(c2ccc(C#N)cc2Cl)C(C)C)cc1
94 to 95	C=CCN1CCc2cc(OC[C@H]3CO[C@](Cn4ccnc4)(c4ccc(Cl)cc4Cl)O3)ccc2C1 (racemic)
130	O=C(NOCCO)c1ccc(F)c(F)c1Nc1ccccc1F
103 to 105	COc1cccc(Oc2ccc(NC(C)=O)cc2)c1
95 to 97	COC(=O)c1ccc(OCC(=O)c2cc3cc(C(C)C)ccc3o2)cc1
108 to 109	Cc1c(Cc2cccc(C(F)(F)F)c2)oc2cccc(-c3cccc(C(=O)NCCC#N)c3)c12
228 to 229	O=C1CC(c2cccc([N+](=O)[O-])c2)=Nc2ccc(C#Cc3ccccc3)cc2N1
181 to 182	COc1ccc(NC(=O)c2ccccc2NS(=O)(=O)c2ccc(C)cc2)cc1Cl
111 to 113	O=C(Nc1cc(F)cc(F)c1)c1ccccn1
280	NS(=O)(=O)Cc1cccc(NC(=O)c2cnn3c(C(F)F)cc(-c4ccc(C(F)(F)F)cc4)nc23)c1
206 to 207	O=C(NCCc1ccc(O)cc1)c1ccc2n1Cc1ccccc1N(C(=O)COc1ccc(Cl)cc1)C2
131 to 133	CC(C)(C)[Si](C)(C)OCCCC(=O)c1cc(-c2ccc(S(C)(=O)=O)cc2)n(C2CCCCC2)n1
157 to 158	O=S(=O)(NCCCCOc1ccc(-c2cc[nH]n2)cc1)c1ccc(Br)cc1
325 to 327	O=C(Nc1ccc(-c2ncc(-c3ccc(NC(=O)C4CCCCCC4)cc3)[nH]2)cc1)c1ccc(Cl)cc1
305 to 315	Cn1c2cc(Cl)ccc2c2c(CC#N)nn(-c3ccccc3)c(=O)c21
234 to 235	NC(=O)C1CCCN1c1nc(-c2ccccc2)nc2[nH]c(CN3CCC(O)(c4ccccc4)CC3)cc12 (configuration not stated)
174 to 175	COc1ccc(Nc2nccc(-c3ccncc3)n2)cc1

Second part, the molecule before the results:

Structure (SMILES)	melting point [°C]
O=C1N(Cc2c[nH]cn2)CCN1c1cccc(Cl)c1	201 to 203
CC12CCCc3cc(Nc4ncc(C(=O)O)cn4)cc(c31)CCC2	> 300
C#Cc1ccc2c(c1)C(=O)N(C(C)(C)C)CC(=O)N2	216 to 219
COc1ccc(Cl)cc1C(=O)CCCCCl	52 to 54
CCCOc1nc2cc(Cn3ccnc3)ccc2nc1C	85.5
N=C(Nc1ccc2[nH]cc(C3CCN(C(=N)c4cccs4)CC3)c2c1)c1cccs1	115 to 117
CC1(N)CN(c2cc3c(cc2F)c(=O)c(C(=O)O)cn3-c2ccc(F)cc2)C1	270 to 276
CCCn1c(=O)c2c(nc(/C=C/c3ccc(OC)c(OC(C)=O)c3)n2C)n(CCC)c1=O	201 to 202
O=[N+]([O-])c1ccc2c(c1)CNCCS2	104 to 105
CC(N)=CC(=O)c1ccc(Cl)cc1	126 to 130
CC(C)(C)NC(=O)C(Br)CCl (configuration not stated)	163 to 168
Cn1c(=O)c([N+](=O)[O-])c(O)c2ccccc21	193
C/C(=C\c1ccc(C(=O)O)cc1)c1ccc2c(c1)C(C)(C)C=CC2(C)C	234 to 236
CC(c1ccc(Br)cc1)N(O)C(N)=O (configuration not stated)	138 to 140
COC(=O)[C@H](c1ccccc1Cl)N1CCc2sc(OC(C)=O)cc2C1	73 to 75
Clc1cccc(N2CCN(CCCc3nnn[nH]3)CC2)c1	162 to 164
CC1=CSC(n2ccc(OCc3ccc(C(F)(F)F)o3)cc2=O)N1C(=O)O (configuration not stated)	261 to 263
CCCCCCC(=O)c1cn(CCCC(=O)O)c2ccccc12	58 to 60
CC(C)(C)OC(=O)NCC(O)c1ccco1 (configuration not stated)	89 to 90
COC(=O)c1cccc2c(I)c(OC)ccc12	98 to 99
CO/C=C1/C(=O)NC(=O)c2cc(Br)ccc21	242 to 243
COc1c(C)c(C)c(OC)c(CN2C(=O)C3CCCC3=Nc3ccccc32)c1C (configuration not stated)	202 to 204
C#CC1(O)CCC2C3CCC4=CCCCC4C3C(=CF)CC21C (configuration not stated)	103 to 104
Cc1ccc(NC(=O)c2ccc(CN3CCNC(C(N)=O)C3)c(C(F)(F)F)c2)cc1Nc1nccc(-c2cncnc2)n1 (configuration not stated)	235 to 238
Cc1ccc(C(=O)c2ccc(CC#N)n2C)cc1	102 to 105

Structure (SMILES)	melting point [°C]
Cc1ccc(CN2CCC(O)CC2)cc1	72 to 74
ICCc1ccc2c(c1)OCO2	36 to 38
O=C(Nc1ccc(S(=O)(=O)C(F)(F)F)cc1Cl)c1cc(-c2ccc(F)cc2F)cc(C23CC4CC(CC(C4)C2)C3)c1O	177 to 178
COC(=O)CCCCCCCCCCCCCCCCCCCCCc1c(C)cc(OC)c(OC)c1O	71 to 72.5
COC(=O)c1ccc(O)c(C=NO)c1	155
O=C1c2cc(F)ccc2OC[C@H]2CCCN12	80 to 82
CCc1ccc(S(=O)(=O)NC(C)(C)C)o1	71 to 72
CNN(NC)C(=O)Nc1cccc2c1C(=O)c1c-2n[nH]c1-c1ccc(C)s1	> 280
N#Cc1nn(-c2c(Cl)cc(C(F)(F)F)cc2Cl)c(N)c1-c1cccc(N)c1	187
CC(C)(C)C1C(=O)NN=C2CCCCC21 (configuration not stated)	161 to 164
COc1cc(C2C3=C(COC3=O)N(c3cc(OC)c(OC)c(OC)c3)c3cc4c(cc32)OCO4)cc(OC)c1OC (configuration not stated)	> 260
CCOC(=O)c1c(C(F)(F)F)nc(C(F)F)c(C(=O)O)c1NC1CC1	120 to 122
OCc1cn(-c2cccc(SC(F)(F)F)c2)cn1	73 to 75
CCOC(=O)c1cn(CC)c2sc(Br)cc2c1=O	153 to 156
CCCc1c(SCCCOc2ccc3c(=O)cc(C(=O)O)oc3c2CCC)ccc(C(C)=O)c1N	202 to 204
CC(=O)OC1CSC(Oc2cnc(-c3ccccc3)c(F)c2)C(OC(C)=O)C1OC(C)=O (configuration not stated)	160 to 162
CS(=O)(=O)N1CC=C(c2ccc3cnc(Nc4ccc(N5CCOCC5)cc4)nn23)CC1	238 to 240
CCCCC(=N)NC(=O)Nc1cccc(Cl)c1	135 to 137
CCCCCCCCCCCCCCCCCCNC(=O)OCC(CNS(=O)(=O)CCCCl)NC(=O)OC(C)(C)C (configuration not stated)	112 to 115
COc1ccc2[nH]c(SCc3ncc(C)c(N4CCOCC4)c3Cl)nc2c1	162 to 164
Cc1c(C)c2c(c(C)c1O)CCC(C)(C(=O)NN(C)C)O2 (configuration not stated)	145 to 146
CCCc1c(OCc2cccc(-c3nnn[nH]3)c2)ccc(C(C)=O)c1O	194 to 195
CCOC(=O)CCc1ccc(OCC(=O)N(CC)CC)cc1Oc1ncc(C(F)(F)F)cc1Cl	88.5 to 89
CC(=O)NC1CCC(CNc2nc3c(s2)CCOc2ccccc2-3)CC1 (configuration not stated)	69 to 72
Oc1c(F)cc2c(c1F)CC(n1cc[nH]c1=S)CC2 (configuration not stated)	258 to 260
